Data as given in the supplement of paper PMC6045584.
± gives the standard deviation of the averaged measurements.

Assays:
[1] = compound: CNCc1ccc(-c2[nH]c3cc(F)cc4c3c2CCNC4=O)cc1; assay: surviving fraction relative to DMSO-only wells; higher = less growth inhibition; settings: exposure time: 5 days
In short: (§1)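 For each tumour cell line, log-phase cells were put into 384-well plates at 250–500 cells per well, then after 24 hours exposed continuously for five days to inhibitors at 0.5, 1, 5, 10, 50, 100, 500 and 1000 nM. Viability was assessed by CellTiter-Glo luminescence, with surviving fraction expressed relative to the median of DMSO-only wells. Lines were screened three times and retained only if replicate Pearson r exceeded 0.7 and median Z' exceeded 0.3.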

[2] = compound: C[C@@H](Oc1cc(-c2cnn(C3CCNCC3)c2)cnc1N)c1c(Cl)ccc(F)c1Cl; assay: as above; settings: exposure time: 5 days
In short: as §1

Test System | surviving fraction ([1]; 0.5 nM) | surviving fraction ([1]; 1 nM) | surviving fraction ([1]; 5 nM) | surviving fraction ([1]; 10 nM) | surviving fraction ([1]; 50 nM) | surviving fraction ([1]; 100 nM) | surviving fraction ([1]; 500 nM) | surviving fraction ([1]; 1000 nM) | surviving fraction ([2]; 0.5 nM) | surviving fraction ([2]; 5 nM) | surviving fraction ([2]; 10 nM) | surviving fraction ([2]; 50 nM) | surviving fraction ([2]; 500 nM) | surviving fraction ([2]; 1000 nM) | surviving fraction ([2]; 1 nM) | surviving fraction ([2]; 100 nM)
C33A CERVIX | 0.991 ± 0.071 | 0.993 ± 0.078 | 1.02 ± 0.085 | 0.937 ± 0.095 | 1.09 ± 0.13 | 0.963 ± 0.041 | 1.25 ± 0.024 | 0.707 ± 0.0089 | 1.01 ± 0.068 | 1.08 ± 0.13 | 1.14 ± 0.059 | 1.06 ± 0.044 | 0.565 ± 0.028 | 0.515 ± 0.011 |  | 
BT549 BREAST | 0.958 ± 0.011 | 1.01 ± 0.16 | 0.972 ± 0.078 | 1.04 ± 0.081 | 0.753 ± 0.13 | 0.818 ± 0.073 | 0.828 ± 0.069 | 0.881 ± 0.056 | 0.76 ± 0.093 |  | 0.905 ± 0.019 | 1.1 ± 0.073 |  | 0.371 ± 0.042 | 0.99 ± 0.11 | 
MDAMB231 BREAST | 0.937 ± 0.013 | 0.967 ± 0.027 | 0.971 ± 0.06 | 0.959 ± 0.021 | 0.917 ± 0.015 | 0.891 ± 0.037 | 0.824 ± 0.02 | 0.764 ± 0.0086 |  | 0.957 ± 0.022 | 0.939 ± 0.025 | 0.955 ± 0.013 | 0.437 ± 0.014 | 0.303 ± 0.012 | 0.939 ± 0.017 | 0.8698 ± 0.0057
SG27 HEADNECK | 1.15 ± 0.14 | 1.18 ± 0.21 | 0.878 ± 0.14 | 1.14 ± 0.11 | 0.968 ± 0.093 | 0.923 ± 0.03 | 1.05 ± 0.062 | 0.989 ± 0.063 | 1.01 ± 0.016 |  | 0.893 ± 0.07 | 1 ± 0.089 |  | 0.668 ± 0.053 |  | 0.92 ± 0.045
SYO1 SYNOVIAL | 0.954 ± 0.081 | 0.921 ± 0.022 | 0.842 ± 0.014 | 0.8 ± 0.019 | 0.655 ± 0.029 | 0.587 ± 0.032 | 0.455 ± 0.037 | 0.351 ± 0.04 | 0.814 ± 0.068 | 0.822 ± 0.031 | 0.781 ± 0.027 | 0.904 ± 0.01 | 0.26 ± 0.063 | 0.123 ± 0.0083 | 0.821 ± 0.064 | 0.829 ± 0.036
HUO3N1 BONE | 1.04 ± 0.061 | 1.02 ± 0.062 | 1.04 ± 0.038 | 0.987 ± 0.099 | 0.933 ± 0.06 | 0.988 ± 0.04 | 0.884 ± 0.039 | 0.85 ± 0.032 |  | 0.971 ± 0.034 |  | 0.974 ± 0.02 | 0.842 ± 0.019 | 0.695 ± 0.031 |  | 0.954 ± 0.029
NCIH441 LUNG | 1.06 ± 0.08 | 0.973 ± 0.12 | 1.09 ± 0.064 | 1.01 ± 0.06 | 0.992 ± 0.051 | 0.809 ± 0.022 | 0.996 ± 0.022 | 0.923 ± 0.1 | 0.999 ± 0.039 | 0.956 ± 0.045 | 0.998 ± 0.068 | 0.996 ± 0.046 | 0.885 ± 0.11 | 0.652 ± 0.079 | 0.982 ± 0.03 | 0.885 ± 0.026
ASKA SYNOVIAL | 1.1 ± 0.024 | 1.04 ± 0.072 | 1.04 ± 0.07 | 0.987 ± 0.017 | 0.887 ± 0.053 | 0.72 ± 0.019 | 0.653 ± 0.1 | 0.585 ± 0.057 | 0.873 ± 0.092 | 0.78 ± 0.035 | 0.69 ± 0.044 | 0.527 ± 0.028 | 0.246 ± 0.014 | 0.249 ± 0.014 | 0.773 ± 0.061 | 0.415 ± 0.021
PCI30 HEADNECK | 0.981 ± 0.059 | 1.04 ± 0.059 | 0.912 ± 0.019 | 0.937 ± 0.037 | 0.916 ± 0.056 | 0.944 ± 0.062 | 0.964 ± 0.044 | 0.956 ± 0.038 | 0.959 ± 0.036 | 1.07 ± 0.058 |  | 1.06 ± 0.076 | 0.679 ± 0.039 | 0.513 ± 0.016 |  | 1.11 ± 0.046
T47D BREAST | 0.999 ± 0.015 | 1.04 ± 0.019 | 1.04 ± 0.021 | 0.999 ± 0.019 | 0.969 ± 0.033 | 0.954 ± 0.046 | 0.911 ± 0.0085 | 0.943 ± 0.023 | 0.912 ± 0.03 | 0.938 ± 0.049 | 0.95 ± 0.026 | 1.02 ± 0.038 |  | 0.856 ± 0.041 | 0.949 ± 0.026 | 1.03 ± 0.059
HCT15 LARGE INTESTINE | 1.03 ± 0.075 | 1.01 ± 0.16 | 1.05 ± 0.13 | 1.05 ± 0.051 | 0.982 ± 0.1 | 0.988 ± 0.093 | 0.996 ± 0.095 | 1.03 ± 0.13 | 0.88 ± 0.058 | 0.895 ± 0.03 |  | 0.959 ± 0.024 | 0.889 ± 0.042 | 0.165 ± 0.0046 | 0.88 ± 0.054 | 
HCC1954 BREAST | 0.795 ± 0.12 | 0.797 ± 0.11 | 0.947 ± 0.039 | 1.04 ± 0.17 | 0.61 ± 0.082 | 0.549 ± 0.019 | 0.557 ± 0.0088 | 0.464 ± 0.012 | 0.364 ± 0.042 | 0.426 ± 0.06 | 0.401 ± 0.021 | 0.472 ± 0.019 | 0.443 ± 0.11 | 0.4677 ± 0.0032 | 0.353 ± 0.084 | 0.473 ± 0.036
HSSYII SYNOVIAL | 0.918 ± 0.023 | 0.915 ± 0.074 | 0.881 ± 0.028 | 0.861 ± 0.027 | 0.696 ± 0.055 | 0.653 ± 0.041 | 0.473 ± 0.05 | 0.343 ± 0.021 | 0.85 ± 0.056 | 0.81 ± 0.03 | 0.861 ± 0.036 | 0.848 ± 0.021 | 0.261 ± 0.0051 | 0.122 ± 0.01 | 0.882 ± 0.039 | 0.794 ± 0.035
MFM223 BREAST | 1.04 ± 0.11 | 1.17 ± 0.072 | 1.07 ± 0.069 | 1.13 ± 0.12 | 0.775 ± 0.053 | 0.699 ± 0.011 | 0.755 ± 0.031 | 0.705 ± 0.079 | 0.7 ± 0.052 |  | 0.751 ± 0.042 | 1.05 ± 0.14 | 0.985 ± 0.064 | 0.836 ± 0.096 | 0.747 ± 0.044 | 0.934 ± 0.019
MDAMB468 BREAST | 0.941 ± 0.048 | 0.89 ± 0.085 | 0.917 ± 0.034 | 0.929 ± 0.056 | 0.8 ± 0.047 | 0.746 ± 0.065 | 0.761 ± 0.048 | 0.609 ± 0.12 | 0.845 ± 0.076 |  | 0.9157 ± 0.004 | 0.972 ± 0.066 | 0.551 ± 0.081 | 0.234 ± 0.019 |  | 1.05 ± 0.041
CHLA90 AUTONOMIC GANGLIA | 0.97 ± 0.049 | 1.01 ± 0.068 | 0.961 ± 0.039 | 0.987 ± 0.043 | 0.993 ± 0.095 | 1.03 ± 0.023 | 1.01 ± 0.038 | 1.03 ± 0.033 | 0.996 ± 0.039 | 0.855 ± 0.042 |  | 0.812 ± 0.037 | 0.479 ± 0.029 | 0.328 ± 0.023 |  | 0.785 ± 0.019
HCC78 LUNG | 1 ± 0.17 | 0.867 ± 0.05 | 1.12 ± 0.22 | 1.13 ± 0.2 | 0.828 ± 0.093 | 1.02 ± 0.15 | 0.936 ± 0.091 | 0.911 ± 0.043 | 0.898 ± 0.19 | 1.05 ± 0.099 | 0.838 ± 0.16 | 0.421 ± 0.08 | 0.166 ± 0.012 | 0.069 ± 0.021 | 0.978 ± 0.1 | 0.455 ± 0.15
HT1080 SOFT TISSUE | 1.04 ± 0.019 | 1.01 ± 0.014 | 0.983 ± 0.04 | 0.968 ± 0.018 | 0.899 ± 0.018 | 0.869 ± 0.037 | 0.818 ± 0.047 | 0.671 ± 0.068 | 1 ± 0.018 | 1.02 ± 0.011 | 0.991 ± 0.059 |  | 0.953 ± 0.036 | 0.638 ± 0.047 |  | 
